Results reported in US20240299446A1 (priority 2023, published 2024).
“Also recorded” adds a separate entry of the source. Marks after values point to notes of the source that are not given here.

How the values were obtained:
ovariectomy (OVX) rats [1] = assay: Blood biochemical analysis in ovariectomized rats
Description: Blood samples were collected at 12 weeks post-surgery. Animals were deprived of food for 16 hours and then anesthetized prior to blood sampling (Zoletile 50, Virbac, Korea). 0.5 mL of blood was collected from the abdominal artery and stored at 4° C. in a refrigerator.
A portion of the blood was used for hematological experiments, and the remaining blood was centrifuged at 3,000 rpm for 10 minutes to obtain serum. The serum was used for blood biochemical experiments and bone metabolism markers 17β-estradiol, osteocalcin and CTx analysis.
The parameters measured for blood biochemical analysis (Ciba-Corning 644 Na/K/Cl Analyzer, Ciba-Corning, Medfield, USA) were as follows: alanine aminotransferase (ALT), aspartate aminotransferase (AST), alkaline phosphatase (ALP), blood urea nitrogen (BUN), glucose, triglycerides (TG), total cholesterol (TC), high-density lipoproteins (HDL), low-density lipoproteins (LDL), total proteins (TP), albumin, calcium and phosphorus.

ovariectomy (OVX) rats [2] = assay: Hematological analysis in ovariectomized rats; format: in vivo, Sprague-Dawley rats
Description: Blood samples were collected at 12 weeks post-surgery.
Hematological experiments were performed using T-540 Coulter Counter (Coulter Electronics Inc., Hialeah, USA) and ADVIA 120 Hematology System (Bayer Healthcare LLC, Tarrytown, USA). White blood cells (WBCs), differential leukocyte counts, hematocrit, red blood cells (RBCs), mean corpuscular volume (MCV), mean corpuscular hemoglobin (MCH), mean corpuscular hemoglobin concentration (MCHC), and platelet count were subjected to analysis, respectively.

[3] = tested on: human colo 205 rectal cancer cells; assay: Rectal cancer animal experiment, Colo205 xenograft model; format: in vivo
Description: Using human colo 205 rectal cancer cells as xenograft model, clinical experiments were performed with adenocarcinoma nude mice for 28 days. In this regard, the experimental method and usage are shown in Table 8 (Protocol Design for the Colo205-e347 Study) and Table 9 (Final treatment regimen at completion of the study) below.

ovariectomy (OVX) rats [4] = assay: Blood markers  (17β-estradiol, osteocalcin, CTx) in ovariectomized rats; format: in vivo, Sprague-Dawley rats
Description: Osteocalcin levels were measured using a sandwich ELISA kit (Biomedical Technologies Inc., Stoughton, USA), while CTx levels were measured using a serum RatLaps ELISA kit (IDS Inc., Fountain Hills, USA).

ovariectomy (OVX) rats [5] = assay: Change in weight of organs in ovariectomized rats; format: in vivo, Sprague-Dawley rats
Description: 12 week old female SPF Sprague-Dawley rats (body weight: 250 g; n=15) were purchased from the Korean Laboratory Animals Center (Eumseong, South Korea). Breeding conditions were as follows: temperature, 23+3° C.; relative humidity, 55+10%; lighting time, 12 hours (08:00-20:00); ventilation frequency, 10-20 changes/h; illumination, 150-300 lux. The temperature and humidity were measured using a hygrometer in units of time, and there were no variables that could affect the experimental results. The animals were fed normal rodent feed and purified water.
The experimental animals were randomly divided into three groups. After adaptation, bilateral laparotomy (sham) or bilateral ovariectomy (OVX) was performed on the rats.
Changes in the body weight and feeding and water intake were measured at a regular interval.

ovariectomy (OVX) rats [6] = assay: Blood markers  (17β-estradiol, osteocalcin, CTx) in ovariectomized rats; format: in vivo, Sprague-Dawley rats; remark: listed apart in the source
multiple myeloma (MM) = assay: Multiple myeloma animal experiment; format: in vivo, 5TGM1-grafted NSG mice
ovariectomy (OVX) rats [7] = assay: Femur bone mineral density (DEXA), breaking force and mineral content in ovariectomized rats; format: in vivo, Sprague-Dawley rats; conditions: for BMD: femur
Description: Using dual energy X-ray absorptionmetry (DEXA; Prodigy Advance, Donga imaging, Korea), the bone mineral density (BMD) of the femur was measured. Immediately after BMD measurement, the femur was subjected to mechanical test at room temperature using a material testing machine (MZ500D; Maruto, Tokyo, Japan). For stabilization, the mid-diaphysis of the thigh was placed on two supports at an interval of 4 mm on a test device. A three-point bending test was performed in front and rear directions at the midpoint between the two supports. Breaking force was measured using software (CTR win, Ver. 1.05) to measure bone strength. […] Then, the thigh was placed at 800° C. for 16 hours, and the weight of the ash was measured. […] Calcium and phosphorus contents were measured using an atomic absorption spectrophotometer (PerkinElmer; A Analyst 100 Spectrophotometer, Boston, USA).

[8] = serum at 12 weeks post-surgery, mean ± SD, 5 rats
[9] = blood at 12 weeks post-surgery, mean ± SD, 5 rats
[10] = OVX rats, increased after ovariectomy
[11] = OVX rats, treatment for 12 weeks after ovariectomy, mean ± SD, 5 rats
[12] = femur ash, reduced by ovariectomy

“Sigma Anti-bonding Molecule Calcium gluconate [SAC gluconate]” was tested, and the “bone growth marker ALP” value (ovariectomy (OVX) rats [1]; OVX rats, serum) was “recovered to a normal level”, the ALP (ovariectomy (OVX) rats [1]; [8]) was 108.5 ± 21.7 IU/l and the Albumin (ovariectomy (OVX) rats [1]; [8]) was 2.8 ± 0.1 g/dL. It also gave a BUN (ovariectomy (OVX) rats [1]; [8]) of 9.5 ± 2.3 mg/dL, a GOT (ovariectomy (OVX) rats [1]; [8]) of 158.0 ± 32.4 IU/l and a GPT (ovariectomy (OVX) rats [1]; [8]) of 20.4 ± 4.5 IU/l. For the same substance, the Glucose (ovariectomy (OVX) rats [1]; [8]) was 110.4 ± 8.7 mg/dL, the HDL (ovariectomy (OVX) rats [1]; [8]) was 22.8 ± 6.2 mg/dL and the LDL-C (ovariectomy (OVX) rats [1]; [8]) was 8.1 ± 4.2 mg/dL. For the same substance, the Phosphorus (ovariectomy (OVX) rats [1]; [8]) was 4.2 ± 0.3 mg/dL, the calcium (ovariectomy (OVX) rats [1]; [8]) was 6.8 ± 0.3 mg/dL and the “Eosinophils” value (ovariectomy (OVX) rats [2]; after ovariectomy) was “significantly increased”. For the same substance, the Basophils (ovariectomy (OVX) rats [2]; [9]) was 0.03 ± 0.04 9%, the Eosinophils (ovariectomy (OVX) rats [2]; [9]) was 5.06 ± 2.88% and the Hematocrit (ovariectomy (OVX) rats [2]; [9]) was 44.94 ± 1.18%. The Lymphocytes (ovariectomy (OVX) rats [2]; [9]) was 73.36 ± 3.78%, the Mean corpuscular hemoglobin (ovariectomy (OVX) rats [2]; [9]) was 32.50 ± 1.75 pg and the “Mean corpuscular hemoglobin concentration” value (ovariectomy (OVX) rats [2]; [9]) was 57.54 ± 1.76 g/dL. The Mean corpuscular volume (ovariectomy (OVX) rats [2]; [9]) was 54.44 ± 1.24 fL, the Monocytes (ovariectomy (OVX) rats [2]; [9]) was 2.60 ± 1.04% and the Neutrophils (ovariectomy (OVX) rats [2]; [9]) was 22.21 ± 5.19%. The Platelet (ovariectomy (OVX) rats [2]; [9]) was 1397.0 ± 81.27 10^3/mm^3, the Red blood cell (ovariectomy (OVX) rats [2]; [9]) was 8.33 ± 0.45 10^6/µL and the White blood cell (ovariectomy (OVX) rats [2]; [9]) was 4.94 ± 2.17 10^3/μl. For the same substance, the “tumor growth (FIG. 4)” value ([3]; Colo205 xenograft mice) was “tumor growth was slowed down after 12 days”, the “tumor growth and size of tumor (FIG. 5)” value ([3]; Colo205 xenograft mice) was “tumor growth became dull and a size of tumor was reduced after 2 or 3 weeks from the dose” and the “MTV (n) Day 28” value ([3]; median tumor volume, 0.83 mg/kg po, Day 28) was 864 (10) mm^3. The “Deaths NTR” value ([3]; non-treatment-related deaths, 0.83 mg/kg po) was 0, the “% TGI” value ([3]; percent tumor growth inhibition compared to Group 1 (vehicle), Day 28, 0.83 mg/kg po) was 8% and the “Deaths TR” value ([3]; treatment-related deaths, 0.83 mg/kg po) was 0. For the same substance, the “C-terminal telopeptide / CTx” value (ovariectomy (OVX) rats [4]; [10]) was “also reduced; also recorded: recovered to normal levels”, the “osteocalcin” value (ovariectomy (OVX) rats [4]; [10]) was “recovered to normal levels” and the C-terminal telopeptide (ovariectomy (OVX) rats [4]; serum CTx, 12 weeks after ovariectomy, mean ± SD, 5 rats) was 4.340 ± 0.395^a ng/ml. For the same substance, the osteocalcin (ovariectomy (OVX) rats [4]; serum, 12 weeks after ovariectomy, mean ± SD, 5 rats) was 3.458 ± 0.254^ac ng/mL, the “weights of the organs” value (ovariectomy (OVX) rats [5]; OVX rats) was “does not significantly affect the weights of the organs” and the “Adrenal gland Left weight” value (ovariectomy (OVX) rats [5]; [11]) was 0.0098 ± 0.0014 g. The “Adrenal gland Right weight” value (ovariectomy (OVX) rats [5]; [11]) was 0.0098 ± 0.0014 g, the Brain weight (ovariectomy (OVX) rats [5]; [11]) was 0.6126 ± 0.02 and the “Femur Left weight” value (ovariectomy (OVX) rats [5]; [11]) was 0.3335 ± 0.02 g. The “Femur Right weight” value (ovariectomy (OVX) rats [5]; [11]) was 0.3302 ± 0.02 g, the “Kidney: Left weight” value (ovariectomy (OVX) rats [5]; [11]) was 0.2977 ± 0.01 g and the “Kidney: Right weight” value (ovariectomy (OVX) rats [5]; [11]) was 0.2926 ± 0.02 g. The Liver weight (ovariectomy (OVX) rats [5]; [11]) was 2.5220 ± 0.15 g, the Pituitary weight (ovariectomy (OVX) rats [5]; [11]) was 4.3 ± 1 mg and the Spleen weight (ovariectomy (OVX) rats [5]; [11]) was 0.2056 ± 0.02 g. The Uterus weight (ovariectomy (OVX) rats [5]; [11]) was 0.0524 ± 0.02 g, the Vagina weight (ovariectomy (OVX) rats [5]; [11]) was 0.0665 ± 0.02 g and the “weights of the reproductive organs (uterus and vagina)” value (ovariectomy (OVX) rats [5]; reduced by ovariectomy) was “not restored”. The “blood 17β-estradiol reduction by ovariectomy” value (ovariectomy (OVX) rats [6]; OVX rats) was “quite recovered”, the Estradiol (ovariectomy (OVX) rats [6]; serum 17β-estradiol, 12 weeks after ovariectomy, mean ± SD, 5 rats) was 4.417 ± 0.347^a pg/ml and the “extension of survival versus control” value (multiple myeloma (MM); 80 mg/kg orally 3 times per day, 83 versus 58 days) was 43%. For the same substance, the “survival after tumor inoculation” value (multiple myeloma (MM); 80 mg/kg orally 3 times per day, control group survived 58 days) was 83 days, the “tumor growth (FIG. 8)” value (multiple myeloma (MM); text result versus control group) was “stopped or at least became dull” and the “Phosphorus” value (ovariectomy (OVX) rats [7]; [12]) was “completely recovered”. For the same substance, the “calcium” value (ovariectomy (OVX) rats [7]; [12]) was “completely recovered”, the BMD (ovariectomy (OVX) rats [7]; DEXA, treatment for 12 weeks after ovariectomy, mean ± SD, 5 rats) was 0.238 ± 0.011 g/cm² and the “BMD” value (ovariectomy (OVX) rats [7]; reduced by ovariectomy) was “completely recovered; also recorded: improved BMD”. For the same substance, the “femoral breaking force” value (ovariectomy (OVX) rats [7]; three-point bending test, reduced by ovariectomy) was “completely recovered”.
